Results from patent US5594001A, “Polycyclic systems, and derivatives thereof, as neurotransmitter release enhancers useful in the treatment of cognitive disorders” (The DuPont Merck Pharmaceutical Company, priority 1994, dated 1997).

System: ACh level in the rat hippocampus
Experiment: Microdialysis, ACh levels in the rat hippocampus in vivo
Design: species or system rat (male Wistar)
Details: for AUC, Area % under the curve / Peak, maximal % increase of ACh release over baseline / time of Peak after administration / Duration, minutes of release above statistical significance: Table IV
Protocol: Male Wistar Rats are anaesthetized and guide cannulas stereotaxically implanted into the brain at the level of the dorsal hippocampus. Following a minimum recovery period of 72 h, dialysis probes (0.5 mm diameter, 4.0 mm long, from BAS) are inserted into the hippocampus through the guide cannulas. The probes are perfused at a rate of 2 μl/min with artificial cerebrospinal fluid containing 100 μM physostigmine sulfate (a cholinesterase inhibitor). Rats are allowed to acclimate for 2 hours prior to sample collection. Dialysate samples are collected every 20 min (40 μl) and immediately injected onto a high performance liquid chromatograph equipped for electrochemical detection (HPLC-EC) of acetylcholine (ACh). Following collection of 3 baseline samples, drugs or vehicle control are administered in 0.01 ml/g body weight and dialysate samples are collected for an additional 3 h. The ACh peak heights of the 3 samples prior to drug administration are averaged together to determine baseline ACh levels. ACh peak heights post drug administration are measured and used to determine percent change over baseline ACh levels. At the end of experiments, probe placement is verified histologically.
ACh is separated by reverse phase chromatography (Hamilton PRP-1 column 150×4.5 mm) and converted to acetate, betaine and hydrogen peroxide on an immobilized enzyme reactor column (BAS). Hydrogen peroxide is then detected electrochemically. Mobile phase for the chromatography consists of 0.2M Na2 HPO4, 0.1 mM EDTA, 0.5 mM SOS, 0.9 mM TMA.Cl, with pH adjusted to 8.0 with phosphoric acid and […] Kathon CG (ESA) added to each liter of mobile phase to retard bacterial growth.
FIGS. 1 and 2 show the effects of fluorine substitution to the pendant groups of the anthrone and azafluorene core series on the ability of compounds to increase the level of ACh in the rat hippocampus in vivo. All compounds were tested at 5 mg/kg except Ex. No 64 which was administered at 1 mg/kg. […] This was observed even though the compound was administered by a route (i.p.) which should lead to greater bioavailability than the oral route. Example 68 of the present invention, the bis-fluorinated analog of Example 611 or U.S. Pat. No. 5,173,489, on the other hand, led to a 2-fold increase in ACh levels which was maintained for over 1 hour (FIG. 1). The anthrone compound Ex. No. 440 of U.S. Pat. No. 5,173,489, at 5 mg/kg, led to a peak ACh level of 72% over baseline (FIG. 2). Ex. No. 64 of the present invention, which is the bis-fluoro analog of Ex. No. 440 of U.S. Pat. No. 5,173,489, at 1 mg/kg, led to a delayed increase in ACh levels reaching a peak of over 100% above baseline (FIG. 2). In contrast to the observed effects of Example 440 of U.S. Pat. No. 5,173,489, the increase in ACh level after administration of Example 64 of the present invention was maintained for the entire duration of testing (3 hours).

[1] = 5 mg/kg, vehicle methocel, NSP = no significant points

## O=C1c2ccccc2C(Cc2ccncc2)(Cc2ccncc2)c2ccccc21 [Ex 440 U.S. Pat. No. 5,173,489, reference compound]
5 mg/kg oral, FIG. 2
  peak ACh level over baseline: 72%
5 mg/kg, vehicle water
  AUC, Area % under the curve: 44 ± 34%
  Peak, maximal % increase of ACh release over baseline: 18 ± 15%
  time of Peak after administration: 20 min
5 mg/kg, vehicle water, NSP = no significant points
  Duration, minutes of release above statistical significance: NSP
10 mg/kg, vehicle water
  AUC, Area % under the curve: 705 ± 112%
  Duration, minutes of release above statistical significance: 100 min
  Peak, maximal % increase of ACh release over baseline: 127 ± 31%
  time of Peak after administration: 60 min

## c1ccc2c(c1)-c1ncccc1C2(Cc1ccncc1)Cc1ccncc1 [Ex. No 611 of U.S. Pat. No. 5,173,489, reference compound]
5 mg/kg i.p., FIG. 1
  effect on ACh levels over what was observed after vehicle administration: no effect on ACh levels

## Oc1ccc2c(c1)C(Cc1ccnc(F)c1)(Cc1ccnc(F)c1)c1ccccc1-2 [Example 61, 9,9-Bis((2-fluoro-4-pyridinyl)methyl)-2-hydroxy-9H-fluorene]
5 mg/kg, vehicle methocel
  AUC, Area % under the curve: 95 ± 61%
  Peak, maximal % increase of ACh release over baseline: 48 ± 22%
  time of Peak after administration: 20 min
[1]
  Duration, minutes of release above statistical significance: 40 min

## O=S1(=O)c2ccccc2C(Cc2ccnc(F)c2)(Cc2ccnc(F)c2)c2ccccc21 [Example 107, 5,5-Bis-(2-fluoropyridin-4-ylmethyl)thioxanthene-10,10-dioxide]
5 mg/kg, vehicle methocel
  AUC, Area % under the curve: 281 ± 226%
  Peak, maximal % increase of ACh release over baseline: 41 ± 10%
  time of Peak after administration: 20 min
[1]
  Duration, minutes of release above statistical significance: NSP

## [O-][S+]1c2ccccc2C(Cc2ccnc(F)c2)(Cc2ccnc(F)c2)c2ccccc21 [Example 108, 5,5-Bis(2-fluoropyridin-4-ylmethyl)thioxanthene-10-oxide]
1 mg/kg, vehicle methocel
  AUC, Area % under the curve: 184 ± 124%
  Peak, maximal % increase of ACh release over baseline: 34 ± 19%
  time of Peak after administration: 100 min
1 mg/kg, vehicle methocel, NSP = no significant points
  Duration, minutes of release above statistical significance: NSP
5 mg/kg, vehicle methocel
  AUC, Area % under the curve: 799 ± 202%
  Peak, maximal % increase of ACh release over baseline: 108 ± 80%
  time of Peak after administration: 80 min
[1]
  Duration, minutes of release above statistical significance: >
